Test results from ChEMBL document CHEMBL1201862, “PubChem BioAssay data set” (2004).
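A five-concentration, 48-hour dose response in 96-well plates underlies each endpoint, interpolated linearly between surrounding concentrations. GI50 marks 50% less growth.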 The source made the active and inactive calls. Cut-off read from the data, not from the text of the source: active = GI50 up to about 1.1 µM and inactive = higher.

Tests used:
Assay in all cases: growth of human tumour cells (NCI), 48 h
A498 = test system: A498
NCI-H23 = test system: NCI-H23
KM12 = test system: KM12
MDA-MB-435 = test system: MDA-MB-435
HOP-92 = test system: HOP-92
HCT-15 = test system: HCT-15
MOLT-4 = test system: MOLT-4
OVCAR-3 = test system: OVCAR-3
UO-31 = test system: UO-31
PC-3 = test system: PC-3
MCF7 = test system: MCF7
SNB-75 = test system: SNB-75
786-0 = test system: 786-0
UACC-257 = test system: UACC-257
ACHN = test system: ACHN
SK-OV-3 = test system: SK-OV-3
K562 = test system: K562
A549 = test system: A549
CCRF-CEM = test system: CCRF-CEM
SW-620 = test system: SW-620

Structure (SMILES)	GI50 (A498)	GI50 (NCI-H23)	GI50 (KM12)	GI50 (MDA-MB-435)	GI50 (HOP-92)	GI50 (HCT-15)	GI50 (MOLT-4)	GI50 (OVCAR-3)	GI50 (UO-31)	GI50 (PC-3)	GI50 (MCF7)	GI50 (SNB-75)	GI50 (786-0)	GI50 (UACC-257)	GI50 (ACHN)	GI50 (SK-OV-3)	GI50 (K562)	GI50 (A549)	GI50 (CCRF-CEM)	GI50 (SW-620)
O=C1C(F)=CC(COC(c2ccccc2)(c2ccccc2)c2ccccc2)OC1n1cc(F)c(=O)[nH]c1=O (stereo not given)	8.79 µM (inactive)	1.77 µM (inactive)	1.91 µM (inactive)	0.746 µM (active)	2.11 µM (inactive)	1.67 µM	0.8 µM (active)	1.48 µM (inactive)	2.2 µM (inactive)	1.71 µM (inactive)	2.07 µM (inactive)	2.58 µM (inactive)	1.97 µM (inactive)	1.96 µM (inactive)	1.64 µM (inactive)	7.05 µM (inactive)	0.278 µM (active)	2.18 µM (inactive)	0.319 µM (active)	0.723 µM (active)
Cn1c(=O)n(CC(Br)CBr)c(=O)n(CC(Br)CBr)c1=O (stereo not given)	77.4 µM (inactive)	36 µM (inactive)	48.9 µM (inactive)	29.9 µM (inactive)	> 100 µM (inactive)	36.2 µM	26.3 µM (inactive)	38.5 µM (inactive)	25.5 µM (inactive)	31.8 µM (inactive)	45.8 µM (inactive)	58.5 µM (inactive)	38.1 µM (inactive)	31.8 µM (inactive)	36.6 µM (inactive)	> 100 µM (inactive)	32.5 µM (inactive)	40.3 µM (inactive)	22.7 µM (inactive)	30.9 µM (inactive)
O=C1OS2(OCc3cccc4cccc2c34)c2ccccc21 (stereo not given)	> 100 µM (inactive)	> 100 µM (inactive)	> 100 µM (inactive)	> 100 µM (inactive)	> 100 µM (inactive)	> 100 µM	> 100 µM (inactive)	> 100 µM (inactive)	> 100 µM (inactive)	> 100 µM (inactive)	> 100 µM (inactive)	> 100 µM (inactive)	> 100 µM (inactive)	> 100 µM (inactive)	> 100 µM (inactive)	> 100 µM (inactive)	> 100 µM (inactive)	> 100 µM (inactive)	40.3 µM (inactive)	> 100 µM (inactive)
COC(=O)C1C(O)C(C)C(O)C(C)C=C(C)C2=C3C(=C(C)C(=O)c4c(O)c(c(C)c(OC(C)=O)c43)NC(=O)C(C)=C/C=C\C(C)C(O)C(C)C1O)OCO2 (stereo not given)	29.4 µM (inactive)	24.9 µM (inactive)	31.9 µM (inactive)	15.7 µM (inactive)	14.9 µM (inactive)	22.4 µM	15.6 µM (inactive)	18.6 µM (inactive)	25.9 µM (inactive)	22.8 µM (inactive)	25.3 µM (inactive)	12.4 µM (inactive)	57.1 µM (inactive)	13.4 µM (inactive)	27 µM (inactive)	> 100 µM (inactive)	18.6 µM (inactive)	54 µM (inactive)	23.6 µM (inactive)	23.9 µM (inactive)
COC(=O)CCC(=O)NC1=C(Nc2ccccc2)C(=O)c2ccccc2C1=O	15 µM (inactive)	4.28 µM (inactive)	15.7 µM (inactive)	1.97 µM (inactive)	15 µM (inactive)	11.2 µM	12.1 µM (inactive)	2.94 µM (inactive)	17.9 µM (inactive)	12.4 µM (inactive)	3.89 µM (inactive)	18.3 µM (inactive)	12.3 µM (inactive)	2.84 µM (inactive)	14.9 µM (inactive)	12.9 µM (inactive)	14.8 µM (inactive)	18.8 µM (inactive)	9.95 µM (inactive)	11.4 µM (inactive)
N#C[BH2-][n+]1cn(C2CC(OP(=O)(O)OCC3OC(n4cnc5c(N)ncnc54)CC3O)C(CO)O2)c2nc(N)[nH]c(=O)c21 (stereo not given)	> 100 µM (inactive)	> 100 µM (inactive)	> 100 µM (inactive)	> 100 µM (inactive)	> 100 µM (inactive)	> 100 µM	> 100 µM (inactive)	> 100 µM (inactive)	> 100 µM (inactive)	> 100 µM (inactive)	> 100 µM (inactive)	> 100 µM (inactive)	> 100 µM (inactive)	> 100 µM (inactive)	> 100 µM (inactive)	> 100 µM (inactive)	> 100 µM (inactive)	> 100 µM (inactive)	> 100 µM (inactive)	> 100 µM (inactive)
CC(C)(C)C(=O)OCC1CCC[N+]2(C)CCCCC12 (stereo not given)	> 100 µM (inactive)	> 100 µM (inactive)	> 100 µM (inactive)	> 100 µM (inactive)	> 100 µM (inactive)	> 100 µM	> 100 µM (inactive)	> 100 µM (inactive)	> 100 µM (inactive)	> 100 µM (inactive)	> 100 µM (inactive)	> 100 µM (inactive)	> 100 µM (inactive)	> 100 µM (inactive)	> 100 µM (inactive)	> 100 µM (inactive)	> 100 µM (inactive)	> 100 µM (inactive)	> 100 µM (inactive)	> 100 µM (inactive)
c1ccc(P2c3ccccc3Nc3ccccc32)cc1	27.1 µM (inactive)	72.9 µM (inactive)	37.2 µM (inactive)	> 100 µM (inactive)	30.1 µM (inactive)	> 100 µM	24.8 µM (inactive)	16.3 µM (inactive)	> 100 µM (inactive)	30 µM (inactive)	72.1 µM (inactive)	11.4 µM (inactive)	> 100 µM (inactive)	43.1 µM (inactive)	86.5 µM (inactive)	> 100 µM (inactive)	44.1 µM (inactive)	42.5 µM (inactive)	23.6 µM (inactive)	> 100 µM (inactive)
CCCCCCCCCCCCC(O)C(=O)O (stereo not given)	> 100 µM (inactive)	> 100 µM (inactive)	> 100 µM (inactive)	> 100 µM (inactive)	> 100 µM (inactive)	> 100 µM	> 100 µM (inactive)	> 100 µM (inactive)	> 100 µM (inactive)	> 100 µM (inactive)	> 100 µM (inactive)	> 100 µM (inactive)	> 100 µM (inactive)	> 100 µM (inactive)	> 100 µM (inactive)	> 100 µM (inactive)	> 100 µM (inactive)	> 100 µM (inactive)	> 100 µM (inactive)	> 100 µM (inactive)
O=c1c(C(c2ccc3ccccc3c2)c2c(O)oc3ccccc3c2=O)c(O)oc2ccccc12	36.3 µM (inactive)	23.2 µM (inactive)	18.1 µM (inactive)	24.9 µM (inactive)	29.2 µM (inactive)	20 µM	22.4 µM (inactive)	32.5 µM (inactive)	17 µM (inactive)	34.6 µM (inactive)	37.1 µM (inactive)	18.8 µM (inactive)	25.6 µM (inactive)	51.5 µM (inactive)	20.6 µM (inactive)	50.9 µM (inactive)	50.6 µM (inactive)	33 µM (inactive)	46.5 µM (inactive)	31.9 µM (inactive)
